Experimental data as given in patent publication US11890287B2, “Therapeutic compounds and compositions for treating social disorders and substance use disorders” (Kinoxis Therapeutics Pty Ltd, priority 2015, dated 2024).

Key:
male Sprague Dawley rats = assay: Methamphetamine-primed reinstatement; assay type: in vivo, rat; conditions: C25 10 mg/kg IP or SR49059 1 mg/kg IP before SOC-1 10 mg/kg
[1] = system: SH-SY5Y neuroblastoma cells; assay: Cell viability (Cell Titer Blue); assay type: cell-based; conditions: 48 hours; for Viability: mean ± SD
Protocol: (§1) No apparent cytotoxicity of SOC-1 has been seen in vitro or toxicity in vivo. In a test, SH-SY5Y neuroblastoma cells and HEK-293 cells (4×10^4 cells per well) were exposed to OT or SOC-1 (0.01-10 μM) for 48 hours, with daily media changes. Viability of cells was assessed after a 4 hour exposure to Cell Titer Blue (Promega).

HEK-293 cells = assay: Cell viability (Cell Titer Blue); assay type: cell-based; conditions: 48 hours; for Viability: mean ± SD
Protocol: as §1

[2] = system: Fos-positive cells in brain regions of interest; assay: Fos immunohistochemistry in rat brain; assay type: in vivo, male Wistar rats; conditions: OT 1 mg/kg, SOC-1 5 mg/kg
Protocol: Fos immunohistochemistry was used to identify the neural “signature” of SOC-1 (5 mg/kg) in rat brain relative to injections of peripheral oxytocin (OT) (1 mg/kg). SOC-1 produces a similar overall pattern of neural activation and behavioural effects as OT. However, the effects are much larger and additional areas are activated by SOC-1 that are implicated in the regulation of social behaviour (e.g. lateral septum, medial preoptic area and supraoptic nucleus). SOC-1 produces powerful activation of OT-containing neurons in both the supraoptic (FIG. 6: (A)=vehicle; (B)=oxytocin; and (C)=SOC-1) and paraventricular nucleus of the hypothalamus.

Wistar rats = assay: Biotelemetry of body temperature and heart rate; assay type: in vivo, rat; conditions: SR49059 10 mg/kg before SOC-1
Protocol: FIG. 7—The monitored body temperatures of Wistar rats administered vehicle, SOC-1 (5 mg/kg), or SOC-1 and the V1A receptor antagonist SR49059 (10 mg/kg).
FIG. 8—The monitored heart rates for Wistar rats administered vehicle, SOC-1 (5 mg/kg), or SOC-1 and the V1A receptor antagonist SR49059 (10 mg/kg).
However, the rats were not ataxic or comatose, they were simply in a relaxed quiescent state. […] Effects on body temperature and other behaviours are not blocked by pre-treatment with the vasopressin V1A receptor antagonist SR49059 (10 mg/kg). […] The data in these two studies was gathered with DataSciences International biotelemetry system.

SMILES: COCc1nnc(N2CC(Oc3ccc(F)cc3Cl)C2)n1-c1ccc(OC)nc1 [C25, 5-(3-(3-(2-chloro-4-fluorophenoxy)azetidin-1-yl)-5-(methoxymethyl)-4H-1,2,4-triazol-4-yl)-2-methoxypyridine, reference compound]
- block of the attenuating effect of SOC-1 on methamphetamine-primed reinstatement (male Sprague Dawley rats): failed to block the attenuating effect of SOC-1

SMILES: Cn1ncc2c1Nc1ccc(F)cc1NC2 [FB-SOC-2, 7-Fluoro-1-methyl-1,4,5,10-tetrahydrobenzo[b]pyrazolo[3,4-e][1,4]diazapine]
- melting point: 181 to 183 °C

SMILES: Cc1ccc2c(c1)NCc1cnn(C)c1N2 [FB-SOC-4, 1,7-Dimethyl-1,4,5,10-tetrahydrobenzo[b]pyrazolo[3,4-e][1,4]diazapine]
- melting point: 172 to 173 °C

SMILES: Cc1cccc2c1Nc1c(cnn1C)CN2 [FB-SOC-5, 1,9-Dimethyl-1,4,5,10-tetrahydrobenzo[b]pyrazolo[3,4-e][1,4]diazepine]
- melting point: 137 to 139 °C

SMILES: COc1ccc2c(c1)NCc1cnn(C)c1N2 [FB-SOC-6, 7-Methoxy-1-methyl-1,4,5,10-tetrahydrobenzo[b]pyrazolo[3,4-e][1,4]diazapine]
- melting point: 126 to 128 °C

SMILES: CC[C@H](C)[C@@H]1NC(=O)[C@H](Cc2ccc(O)cc2)NC(=O)[C@@H](N)CSSC[C@@H](C(=O)N2CCC[C@H]2C(=O)N[C@@H](CC(C)C)C(=O)NCC(N)=O)NC(=O)[C@H](CC(N)=O)NC(=O)[C@H](CCC(N)=O)NC1=O [Oxytocin, oxytocin, reference compound]
- Viability ([1]; 0.01 μM): 100.4 ± 2.4 percentage of vehicle viability
- Viability ([1]; 0.1 μM): 101.3 ± 1.0 percentage of vehicle viability
- Viability ([1]; 1 μM): 100.2 ± 1.1 percentage of vehicle viability
- Viability ([1]; 10 μM): 100.6 ± 2.9 percentage of vehicle viability
- differences in viability ([1]; 0.01-10 μM): No significant differences in viability
- Viability (HEK-293 cells; 0.01 μM): 97.8 ± 6.6 percentage of vehicle viability
- Viability (HEK-293 cells; 0.1 μM): 100.0 ± 3.2 percentage of vehicle viability
- Viability (HEK-293 cells; 1 μM): 101.5 ± 3.7 percentage of vehicle viability
- Viability (HEK-293 cells; 10 μM): 104.3 ± 2.6 percentage of vehicle viability
- differences in viability (HEK-293 cells; 0.01-10 μM): No significant differences in viability
- Mean number of Fos-positive cells, BNST (dorsolateral division) [2]: 11.33
- Mean number of Fos-positive cells, BNST (middle anterior part)) [2]: 5.83
- Mean number of Fos-positive cells, Central nucleus of the amygdala [2]: 25.14
- Mean number of Fos-positive cells, Lateral Parabrachial nucleus [2]: 19.14
- Mean number of Fos-positive cells, Lateral septum (ventral) [2]: 9.17
- Mean number of Fos-positive cells, Locus Ceruleus [2]: 4.14
- Mean number of Fos-positive cells, Medial preoptic area [2]: 3.8
- Mean number of Fos-positive cells, Median preoptic nucleus [2]: 7.17
- Mean number of Fos-positive cells, Nucleus of Solitary Tract [2]: 31.68
- Mean number of Fos-positive cells, PAG (ventrolateral) [2]: 6.57
- Mean number of Fos-positive cells, Paraventircular nucleus [2]: 55.57
- Mean number of Fos-positive cells, Supraoptic nucleus [2]: 4.57
- Mean percent of OT cells that were Fos positive, Paraventircular nucleus [2]: 22.07%
- Mean percent of OT cells that were Fos positive, Supraoptic nucleus [2]: 13.5%

SMILES: COc1ccc(S(=O)(=O)N2c3ccc(Cl)cc3[C@](O)(c3ccccc3Cl)[C@@H]2C(=O)N2CCC[C@H]2C(N)=O)cc1OC [SR49059, reference compound]
- block of SOC-1 effects on body temperature and other behaviours by pre-treatment (Wistar rats): not blocked
- block of the attenuating effect of SOC-1 on methamphetamine-primed reinstatement (male Sprague Dawley rats): failed to block the attenuating effect of SOC-1
